This is an account of results in patent US12527763B2, “Pyrrole amide compound and use thereof” (SUNSHINE LAKE PHARMA CO., LTD., priority 2019, dated 2026).

SMILES strings stand for the structures. ≈ marks a conversion by molar mass, not a printed value. Counter-ions that a name gives are not always drawn. Like-named read-outs stand apart in the source and are kept apart here. Some results are limits rather than exact numbers.

A short description of data set [1]: Pharmacokinetic experiment in Beagle dogs. It counts as in vivo. Conditions: oral, 5.0 mg/kg; for AUC(0-inf) / Cmax / Tmax / half-life: dog, plasma. The method, then: Beagle dogs 8-10 kg were randomly divided into two groups, and the test compound was administered orally at a dosage of 5.0 mg/kg; after administration, blood was collected at the time points of 0.0833, 0.25, 0.5, 1.0, 2.0, 4.0, 6.0, 8.0, 24.0, 32.0 and 48.0 hours. A standard curve was established within a suitable range according to the sample concentration, and AB SCIEX API4000 LC-MS/MS was used to determine the concentration of the test compounds in the plasma sample in the MRM mode. According to the drug concentration-time curve, the WinNonLin 6.3 software non-compartmental model method was used to calculate the pharmacokinetic parameters.

Data set [2] in a line: Pharmacokinetic experiment in cynomolgus monkey. It counts as in vivo, cynomolgus monkeys. Particulars: oral, 3 mg/kg; for AUC(0-inf) / Cmax / Tmax / half-life: cynomolgus monkey, plasma, female cynomolgus monkeys. How it is done: Three female cynomolgus monkeys of 3.0-3.5 kg were taken and orally administered with the test compound at a dosage of 3 mg/kg; after the administration, blood was collected at the time points of 0.083, 0.25, 0.5, 1, 2, 4, 6, 8, 24, 32 and 48 hours. A standard curve was established within an appropriate range based on the sample concentration, and AB SCIEX API 5000 LC-MS/MS was used to determine the concentration of the test compounds in the plasma sample in the MRM mode. According to the drug concentration-time curve, WinNnonlin 6.3 software non-compartmental model method was used to calculate the pharmacokinetic parameters.

In a further data set the test system is Balb/c 3T3 fibroblast. Particulars: PMDA Examination Report (Jan. 8, 2019); cited from earlier work.
Data set [3] has as its system Balb/c 3T3 cells. In words: In vitro 3T3 cell neutral red uptake phototoxicity test. Conditions: for IC50: Mus musculus.
Experimental: (§1) Preparation of the test compound solution: The test compound was dissolved in dimethyl sulfoxide to obtain a 10 mg/mL solution, and then diluted with dimethyl sulfoxide in multiples of 2.15 times into solutions of different concentrations.
(§2) Balb/c 3T3 cells were seeded on 96-well culture plates. After 24 hours of culture, the culture medium was discarded, different concentrations of test compounds or balanced salts (HBSS) solution containing positive control substance (chlorpromazine hydrochloride, CPZ) and vehicle control substance were added. Two culture plates of each concentration of the test compound and the positive control substance are a light (+UV) plate and a non-light (-UV) plate, respectively. After incubating for 1 hour, the light plate was placed under UVA with a light intensity of about 1.7 mw/cm2 until the light dose reached 5.0 J/cm2. The non-light plate was placed at room temperature and protected from light for the same time. After the light was over, the culture medium was replaced with fresh one and continuously cultured for 18-22 hours. About 3 hours before the culture was complete, the culture medium was replaced with a medium containing neutral red and serum-free. After incubation, neutral red eluent was added, the absorbance value (OD540) of each well at 540 nm was measured after shaking. The cell 50% inhibitory concentration (IC50), light stimulating factor (PIF) and/or average light effect (MPE) were calculated. The phototoxicity of the compound was determined according to the following criteria: PIF>5 is judged as positive for phototoxicity; 5>PIF>2 is judged as possible phototoxicity; 2>PIF is judged as no phototoxicity.
Data set [4] concerns Balb/c 3T3 cells. Conditions: mouse, 1 h.
Experimental: as §1, §2
Data set [5] has as its target mineralocorticoid receptor (MR) (Homo sapiens (Human), UniProt P08235). The data set is described as follows: In vitro activity test: MR LBD-Gal4 DBD dual luciferase reporter gene assay in HEK293 cells with aldosterone at EC80. It counts as cell-based. Conditions: antagonism of aldosterone at EC80, 18 hours. An excerpt: Using the characteristics of luciferase binding to the substrate to generate a chemiluminescence reaction, the plasmid containing mineralocorticoid receptor (MR) ligand binding domain (LBD) fused with Gal4 DNA binding domain (DBD) and the firefly luciferase reporter gene plasmid under the control of Gal4 UAS (upstream activation sequence) are transfected into human embryonic kidney cells (HEK293). The changes in mineralocorticoid receptor activity before and after stimulation or the influence of different stimuli on mineralocorticoid receptor activity are judged by the level of firefly luciferase activity. At the same time, in order to reduce the impact of internal change factors on the accuracy of the experiment, the plasmid with Renilla luciferase gene is used as a control plasmid to transfect cells to provide an internal control for transcriptional activity, so that the test results are not interfered by changes in experimental conditions.
• 1) The HEK293 cells were collected after trypsinization and the cell density was adjusted to 500,000 cells/mL; • 2) FuGENE HD transfection reagent was added to the cell suspension; • 3) The above cell suspension was inoculated into a 96-well cell culture plate of 100 μL/well, and incubated for 24 hours at 37° C., 5% CO2; • 4) A series of concentrations of the test compound solution and EC80 concentration of agonist aldosterone were added to each well and incubated for 18 hours; • 5) Firefly and Renilla luciferase signals were detected by Promega dual luciferase reporter gene test system. Result Processing: • 1) After obtaining the firefly luciferase signal (F) and the Renilla luciferase signal (R), the Renilla luciferase signal was used for correction, that is, the F/R value was used for subsequent calculation of inhibition rate; • 2)% inhibition rate=(Max−X)/(Max−Min)×100%, wherein Max is the F/R value of the positive control well, Min is the F/R value of the negative control well, and X is the test compound well of different concentrations F/R value; • 3) IC50 was calculated by GraphPrism 5.0 mapping software.
(In general: A reporter such as luciferase makes a cellular process visible.)

[6] abbreviates: BALB/c3T3, light or radiation study, read-out: IC50 (+UV).
The mark [7] stands for this setting: BALB/c3T3, read-out: IC50 (−UV).

mineralocorticoid receptor (MR), sequence (P08235 726-964, species assumed): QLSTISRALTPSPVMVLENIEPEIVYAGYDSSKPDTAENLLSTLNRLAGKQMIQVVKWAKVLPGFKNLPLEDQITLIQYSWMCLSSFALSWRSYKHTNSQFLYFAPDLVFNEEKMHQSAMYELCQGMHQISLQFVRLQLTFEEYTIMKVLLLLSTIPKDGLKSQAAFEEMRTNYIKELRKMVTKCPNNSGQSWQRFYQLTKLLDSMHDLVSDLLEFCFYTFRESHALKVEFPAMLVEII

As usually defined, the AUC(0-inf) is total exposure, with the tail of the curve extrapolated. The Cmax is the highest concentration seen after dosing. Usually Tmax stands for the time at which the peak concentration occurs. One may read the half-life as the time in which the quantity being followed falls by half. `Cc1c(C(=O)Nc2ccc(S(C)(=O)=O)cc2)cn(CCO)c1-c1ccccc1C(F)(F)F` (atropisomer, axis not shown) [CS-3150, Esaxerenone, reference compound]: in data set [1], the AUC(0-inf) came to 45600 ng·h/mL, the concentration peaked (Cmax) at 1580 ng/mL, the Tmax amounted to 2.33 h and the half-life is 20.3 h. Besides, in data set [2], the AUC(0-inf) stood at 8990 ng·h/mL, the concentration peaked (Cmax) at 741 ng/mL, the Tmax amounted to 1.67 h and the half-life is 9.63 h. Moreover, in the data set on Balb/c 3T3 fibroblast, the “light stimulus factor PIF” value is > 17 and the “phototoxicity (in words)” value was “phototoxic”.
Broadly, the IC50 is the concentration that gives 50% inhibition. For `CN(C)CCCN1c2ccccc2Sc2ccc(Cl)cc21` [CPZ, chlorpromazine hydrochloride, reference compound], the IC50 in the data set on Balb/c 3T3 cells [3] (setting [6]) came to 0.982 µg/mL. The IC50 with Balb/c 3T3 cells [3] (setting [7]) worked out at 36.7 µg/mL. In the data set with Balb/c 3T3 cells [4], the “MPE (average light effect)” value is on record as 0.368 and the “PIF (light stimulating factor)” value turned out to be 37.381.
In turn, `Cc1c(C(=O)Nc2ccc(S(C)(=O)=O)c(F)c2)cn(CCO)c1-c1ccccc1C(F)(F)F` [Example 1, N-(3-Fluoro-4-(methylsulfonyl)phenyl)-1-(2-hydroxyethyl)-4-methyl-5-(2-(trifluoromethyl)phenyl)-1H-pyrrole-3-carboxamide] came in with an IC50 in data set [5] of 6.93 nM.
In the case of `Cc1c(C(=O)Nc2ccc([S@SP2](C)(=O)=O)c(F)c2)cn(CCO)c1-c1ccccc1C(F)(F)F` [Example 2, (S)-1-(2-Hydroxyethyl)-4-methyl-N-(3-fluoro-4-(methylsulfonyl)phenyl)-5-(2-(trifluoromethyl)phenyl)-1H-pyrrole-3-carboxamide], in the data set with Balb/c 3T3 cells [3] (Balb/c 3T3 cells, +UV vs −UV), the “MPE (average light effect)” value was −0.044 and the “PIF (light stimulating factor)” value came out at 1.289. Further, the half-inhibitory concentration (IC50) in the data set with Balb/c 3T3 cells [3] (setting [6]) amounted to 49.6 µg/mL (≈ 102 µM). The concentration for half-maximal inhibition (IC50) in the data set with Balb/c 3T3 cells [3] (setting [7]) turned out to be 63.8 µg/mL (≈ 132 µM). In addition, the “in vitro phototoxicity (in words)” value in the data set on Balb/c 3T3 cells [3] (conclusion from Table 6) is listed as “no in vitro phototoxicity”. In addition, in the data set on Balb/c 3T3 cells [3] (judged from PIF), the Phototoxicity entry is listed as “− (2>PIF is judged as no phototoxicity)”. Also, the IC50 in data set [5] turned out to be 3.4 nM. Further, in data set [1], the AUC(0-inf) was 145000 ng·h/mL, the highest level (Cmax) was 4690 ng/mL, the Tmax amounted to 3.33 h and the half-life was 25.3 h. Also, the “pharmacokinetic properties compared with the control compound CS-3150” value in data set [1] was “higher exposure, blood concentration and long half-life”. For the same compound, in data set [2], the AUC(0-inf) came to 22000 ng·h/mL, the peak concentration (Cmax) worked out at 1040 ng/mL, the time to peak (Tmax) worked out at 5.3 h and the half-life was 13 h. For the same compound, the “pharmacokinetic properties compared to the control compound CS-3150” value in data set [2] (cynomolgus monkeys) was “higher exposure, blood concentration and bioavailability”.
In data set [5], `Cc1c(C(=O)Nc2ccc(S(C)(=O)=O)c(F)c2)cn(CC2(O)CC2)c1-c1ccccc1C(F)(F)F` [Example 3, N-(3-Fluoro-4-(methylsulfonyl)phenyl)-1-((1-hydroxycyclopropyl)methyl)-4-methyl-5-(2-(trifluoromethyl)phenyl)-1H-pyrrole-3-carboxamide] returned a concentration for half-maximal inhibition (IC50) of 47.6 nM.
On the same count and under the same terms, with `Cc1c(C(=O)Nc2ccc(S(C)(=O)=O)c(F)c2)cn(CC2CCO2)c1-c1ccccc1C(F)(F)F` (stereo not shown) [Example 5, N-(3-Fluoro-4-(methylsulfonyl)phenyl)-4-methyl-1-(oxetan-2-ylmethyl)-5-(2-(trifluoromethyl)phenyl)-1H-pyrrole-3-carboxamide] the figure was 21.5 nM; with `Cc1c(C(=O)Nc2ccc(S(C)(=O)=O)c(F)c2)cn(C2COC2)c1-c1ccccc1C(F)(F)F` [Example 6, N-(3-Fluoro-4-(methylsulfonyl)phenyl)-4-methyl-1-(oxetan-3-yl)-5-(2-(trifluoromethyl)phenyl)-1H-pyrrole-3-carboxamide], 30.3 nM.
The compound `Cc1c(C(=O)Nc2ccc(S(C)(=O)=O)c(F)c2)cn(-c2cccnc2)c1-c1ccccc1C(F)(F)F` [Example 7, N-(3-Fluoro-4-(methylsulfonyl)phenyl)-4-methyl-1-(pyridin-3-yl)-5-(2-(trifluoromethyl)phenyl)-1H-pyrrole-3-carboxamide] displayed a 50% inhibitory concentration (IC50) in data set [5] of 84.5 nM.
Regarding `Cc1c(C(=O)Nc2cc(F)c3c(c2)sc(=O)n3C)cn(CCO)c1-c1ccccc1C(F)(F)F` [Example 8, N-(4-Fluoro-3-methyl-2-oxo-2,3-dihydrobenzo[d]thiazol-6-yl)-1-(2-hydroxyethyl)-4-methyl-5-(2-(trifluoromethyl)phenyl)-1H-pyrrole-3-carboxamide], inhibition in data set [5] was half-maximal at 82.2 nM (IC50).
